How the values were obtained:
[1] = target: Glycogen synthase kinase-3 alpha (Homo sapiens) (UniProt P49840); details: Compound concentration 1000.0 nM
[2] = target: Mitogen-activated protein kinase 13 (Homo sapiens) (UniProt O15264); details: Compound concentration 1000.0 nM
[3] = target: Muscarinic acetylcholine receptor M1 (Homo sapiens) (UniProt P11229); details: Compound concentration 10.0 uM
[4] = target: Phosphatidylinositol 4,5-bisphosphate 3-kinase catalytic subunit beta isoform (Homo sapiens) (UniProt P42338); details: Compound concentration 1000.0 nM
[5] = target: Angiopoietin-1 receptor (Homo sapiens) (UniProt Q02763); details: Compound concentration 1000.0 nM
[6] = system: Phosphatidylinositol 4,5-bisphosphate 3-kinase catalytic subunit alpha isoform (Homo sapiens), P42336 [H1047L]; details: Compound concentration 1000.0 nM
[7] = target: Proto-oncogene tyrosine-protein kinase Src (Homo sapiens) (UniProt P12931); details: Compound concentration 1000.0 nM
[8] = target: Muscarinic acetylcholine receptor M5 (Homo sapiens) (UniProt P08912); details: Compound concentration 10.0 uM
[9] = target: Leucine-rich repeat serine/threonine-protein kinase 2 (Homo sapiens) (UniProt Q5S007); details: Compound concentration 1000.0 nM
[10] = target: Rhodopsin kinase GRK7 (Homo sapiens) (UniProt Q8WTQ7); details: Compound concentration 1000.0 nM
Sequence of Rhodopsin kinase GRK7 (Homo sapiens) (Q8WTQ7 whole entry): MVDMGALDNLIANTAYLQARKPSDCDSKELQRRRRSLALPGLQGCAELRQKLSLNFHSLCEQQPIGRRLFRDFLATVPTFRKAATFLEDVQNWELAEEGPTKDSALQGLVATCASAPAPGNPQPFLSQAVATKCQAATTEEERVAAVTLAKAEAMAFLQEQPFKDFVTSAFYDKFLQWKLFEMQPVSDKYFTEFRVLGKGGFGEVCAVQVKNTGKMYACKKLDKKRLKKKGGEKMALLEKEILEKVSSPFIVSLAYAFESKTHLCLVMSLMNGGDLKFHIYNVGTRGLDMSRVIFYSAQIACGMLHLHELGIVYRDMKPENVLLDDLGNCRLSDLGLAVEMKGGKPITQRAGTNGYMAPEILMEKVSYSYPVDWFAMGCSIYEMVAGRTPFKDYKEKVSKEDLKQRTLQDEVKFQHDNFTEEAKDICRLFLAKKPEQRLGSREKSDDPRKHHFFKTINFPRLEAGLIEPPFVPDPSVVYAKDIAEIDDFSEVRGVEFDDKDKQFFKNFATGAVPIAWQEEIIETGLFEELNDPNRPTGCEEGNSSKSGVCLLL

[11] = target: Cyclin-dependent kinase 4 (Homo sapiens) (UniProt P11802); details: Compound concentration 1000.0 nM
Sequence of Cyclin-dependent kinase 4 (Homo sapiens) (P11802 whole entry): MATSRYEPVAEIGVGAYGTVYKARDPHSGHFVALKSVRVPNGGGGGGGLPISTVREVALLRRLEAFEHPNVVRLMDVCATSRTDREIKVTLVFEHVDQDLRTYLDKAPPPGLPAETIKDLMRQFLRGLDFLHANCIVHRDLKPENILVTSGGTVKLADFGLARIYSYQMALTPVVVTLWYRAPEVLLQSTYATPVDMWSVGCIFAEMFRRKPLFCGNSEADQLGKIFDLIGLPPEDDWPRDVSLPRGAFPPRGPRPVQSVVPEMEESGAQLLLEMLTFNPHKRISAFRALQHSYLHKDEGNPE

[12] = target: Ribosomal protein S6 kinase alpha-5 (Homo sapiens) (UniProt O75582); details: Compound concentration 1000.0 nM
[13] = target: Transient receptor potential cation channel subfamily M member 6 (Homo sapiens) (UniProt Q9BX84); details: Compound concentration 1000.0 nM
Sequence of Transient receptor potential cation channel subfamily M member 6 (Homo sapiens) (Q9BX84 whole entry): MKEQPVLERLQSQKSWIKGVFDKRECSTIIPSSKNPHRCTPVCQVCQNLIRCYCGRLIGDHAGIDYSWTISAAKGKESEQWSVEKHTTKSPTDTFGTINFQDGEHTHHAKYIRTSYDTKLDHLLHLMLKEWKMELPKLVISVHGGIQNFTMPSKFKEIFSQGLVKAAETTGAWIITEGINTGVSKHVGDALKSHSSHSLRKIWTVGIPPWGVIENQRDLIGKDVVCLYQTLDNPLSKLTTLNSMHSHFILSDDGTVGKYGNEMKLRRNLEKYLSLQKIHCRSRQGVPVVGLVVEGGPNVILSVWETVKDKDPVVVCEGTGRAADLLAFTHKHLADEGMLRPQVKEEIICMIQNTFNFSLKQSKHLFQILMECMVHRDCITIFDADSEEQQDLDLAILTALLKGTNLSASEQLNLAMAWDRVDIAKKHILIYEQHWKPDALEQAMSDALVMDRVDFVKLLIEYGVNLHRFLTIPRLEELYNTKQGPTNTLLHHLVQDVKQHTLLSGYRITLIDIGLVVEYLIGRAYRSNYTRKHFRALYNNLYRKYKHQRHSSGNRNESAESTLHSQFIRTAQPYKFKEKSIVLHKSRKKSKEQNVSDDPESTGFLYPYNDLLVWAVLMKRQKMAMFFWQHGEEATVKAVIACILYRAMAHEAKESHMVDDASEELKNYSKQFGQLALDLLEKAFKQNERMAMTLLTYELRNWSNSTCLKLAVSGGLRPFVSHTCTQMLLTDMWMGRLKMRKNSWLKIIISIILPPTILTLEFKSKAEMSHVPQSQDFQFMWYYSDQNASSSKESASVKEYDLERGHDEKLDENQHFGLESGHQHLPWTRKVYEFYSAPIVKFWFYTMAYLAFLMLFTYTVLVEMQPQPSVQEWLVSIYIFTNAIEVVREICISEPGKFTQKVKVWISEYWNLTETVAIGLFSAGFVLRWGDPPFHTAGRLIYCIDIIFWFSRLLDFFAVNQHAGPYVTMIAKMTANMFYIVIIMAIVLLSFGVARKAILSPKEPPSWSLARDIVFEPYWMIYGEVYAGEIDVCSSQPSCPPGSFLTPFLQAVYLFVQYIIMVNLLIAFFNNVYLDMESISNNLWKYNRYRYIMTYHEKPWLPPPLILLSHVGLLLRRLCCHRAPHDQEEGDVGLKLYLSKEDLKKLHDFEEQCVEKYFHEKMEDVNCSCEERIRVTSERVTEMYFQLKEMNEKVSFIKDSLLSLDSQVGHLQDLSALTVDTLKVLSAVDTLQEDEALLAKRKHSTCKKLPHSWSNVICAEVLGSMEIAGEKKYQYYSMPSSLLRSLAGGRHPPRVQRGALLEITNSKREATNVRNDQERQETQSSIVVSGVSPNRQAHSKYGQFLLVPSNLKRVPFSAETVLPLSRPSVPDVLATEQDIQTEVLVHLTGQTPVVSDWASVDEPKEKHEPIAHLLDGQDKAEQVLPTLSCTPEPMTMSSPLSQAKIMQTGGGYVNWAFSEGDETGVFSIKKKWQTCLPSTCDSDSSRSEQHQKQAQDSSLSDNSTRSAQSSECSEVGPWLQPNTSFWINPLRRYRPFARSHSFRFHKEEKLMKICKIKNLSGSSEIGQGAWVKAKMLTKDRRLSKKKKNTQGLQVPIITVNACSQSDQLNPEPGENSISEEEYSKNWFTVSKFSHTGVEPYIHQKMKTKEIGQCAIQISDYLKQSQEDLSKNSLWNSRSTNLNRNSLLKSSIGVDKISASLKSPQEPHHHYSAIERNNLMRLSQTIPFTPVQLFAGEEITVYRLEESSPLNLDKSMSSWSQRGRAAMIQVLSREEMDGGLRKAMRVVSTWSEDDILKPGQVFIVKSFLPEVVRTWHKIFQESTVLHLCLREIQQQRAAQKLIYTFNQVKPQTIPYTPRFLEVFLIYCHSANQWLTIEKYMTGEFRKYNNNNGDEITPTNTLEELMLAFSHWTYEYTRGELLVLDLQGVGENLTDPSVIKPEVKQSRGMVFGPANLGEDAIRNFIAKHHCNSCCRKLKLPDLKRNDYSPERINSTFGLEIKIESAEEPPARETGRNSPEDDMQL

[14] = target: Interferon-induced, double-stranded RNA-activated protein kinase (Homo sapiens) (UniProt P19525); details: Compound concentration 1000.0 nM
[15] = system: Tyrosine-protein kinase ABL1 (Homo sapiens), P00519 [F317I]; details: Compound concentration 1000.0 nM
[16] = target: Phosphatidylinositol 4-phosphate 3-kinase C2 domain-containing subunit beta (Homo sapiens) (UniProt O00750); details: Compound concentration 1000.0 nM
[17] = target: Calcium/calmodulin-dependent protein kinase type 1D (Homo sapiens) (UniProt Q8IU85); details: Compound concentration 1000.0 nM
Sequence of Calcium/calmodulin-dependent protein kinase type 1D (Homo sapiens) (Q8IU85 whole entry, looked up): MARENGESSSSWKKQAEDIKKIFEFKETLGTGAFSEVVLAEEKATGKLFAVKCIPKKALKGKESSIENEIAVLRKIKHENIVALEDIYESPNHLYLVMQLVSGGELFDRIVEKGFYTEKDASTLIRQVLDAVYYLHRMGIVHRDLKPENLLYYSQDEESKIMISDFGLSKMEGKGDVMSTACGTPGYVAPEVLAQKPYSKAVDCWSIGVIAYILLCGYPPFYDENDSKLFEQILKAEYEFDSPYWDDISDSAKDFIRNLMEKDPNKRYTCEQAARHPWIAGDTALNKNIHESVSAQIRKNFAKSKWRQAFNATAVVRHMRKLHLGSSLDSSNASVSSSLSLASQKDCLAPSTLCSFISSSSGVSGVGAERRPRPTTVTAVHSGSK

[18] = system: Tyrosine-protein kinase ABL1 (Homo sapiens), P00519 [F317L]; details: Compound concentration 1000.0 nM
Histamine H2 receptor = Histamine H2 receptor (Homo sapiens, UniProt P25021); details: Compound concentration 10.0 uM
[19] = target: Tyrosine-protein kinase Fer (Homo sapiens) (UniProt P16591); details: Compound concentration 1000.0 nM
Sequence of Tyrosine-protein kinase Fer (Homo sapiens) (P16591 whole entry, looked up): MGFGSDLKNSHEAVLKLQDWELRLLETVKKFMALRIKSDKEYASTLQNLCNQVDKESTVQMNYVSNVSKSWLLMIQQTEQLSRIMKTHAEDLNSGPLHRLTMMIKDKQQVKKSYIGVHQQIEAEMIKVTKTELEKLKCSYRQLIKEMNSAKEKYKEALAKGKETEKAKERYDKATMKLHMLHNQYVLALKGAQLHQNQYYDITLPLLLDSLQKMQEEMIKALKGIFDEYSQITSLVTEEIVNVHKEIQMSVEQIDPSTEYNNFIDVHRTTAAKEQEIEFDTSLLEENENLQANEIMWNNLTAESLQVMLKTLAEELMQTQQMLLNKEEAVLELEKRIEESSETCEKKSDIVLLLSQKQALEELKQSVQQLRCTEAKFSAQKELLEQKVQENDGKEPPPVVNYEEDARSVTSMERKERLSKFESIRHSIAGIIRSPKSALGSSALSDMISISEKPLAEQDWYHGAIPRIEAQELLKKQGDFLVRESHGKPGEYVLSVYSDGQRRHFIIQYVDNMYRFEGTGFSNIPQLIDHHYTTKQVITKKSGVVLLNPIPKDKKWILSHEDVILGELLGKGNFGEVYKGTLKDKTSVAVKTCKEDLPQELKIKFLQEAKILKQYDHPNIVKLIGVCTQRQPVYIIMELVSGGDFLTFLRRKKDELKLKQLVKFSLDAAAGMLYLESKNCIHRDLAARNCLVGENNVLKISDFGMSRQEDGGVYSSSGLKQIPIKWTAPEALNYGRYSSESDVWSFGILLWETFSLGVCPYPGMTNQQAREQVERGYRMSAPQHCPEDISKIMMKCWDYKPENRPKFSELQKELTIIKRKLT

[20] = target: 1-phosphatidylinositol 3-phosphate 5-kinase (Homo sapiens) (UniProt Q9Y2I7); details: Compound concentration 1000.0 nM
[21] = target: Serine/threonine-protein kinase WNK4 (Homo sapiens) (UniProt Q96J92); details: Compound concentration 1000.0 nM
[22] = target: Serine/threonine-protein kinase Nek7 (Homo sapiens) (UniProt Q8TDX7); details: Compound concentration 1000.0 nM
[23] = system: ALK tyrosine kinase receptor (Homo sapiens), Q9UM73 [C1156Y]; details: Compound concentration 1000.0 nM
[24] = target: Muscarinic acetylcholine receptor M4 (Homo sapiens) (UniProt P08173); details: Compound concentration 10.0 uM
[25] = target: Serine/threonine-protein kinase Chk1 (Homo sapiens) (UniProt O14757); details: Compound concentration 1000.0 nM
Sequence of Serine/threonine-protein kinase Chk1 (Homo sapiens) (O14757 whole entry): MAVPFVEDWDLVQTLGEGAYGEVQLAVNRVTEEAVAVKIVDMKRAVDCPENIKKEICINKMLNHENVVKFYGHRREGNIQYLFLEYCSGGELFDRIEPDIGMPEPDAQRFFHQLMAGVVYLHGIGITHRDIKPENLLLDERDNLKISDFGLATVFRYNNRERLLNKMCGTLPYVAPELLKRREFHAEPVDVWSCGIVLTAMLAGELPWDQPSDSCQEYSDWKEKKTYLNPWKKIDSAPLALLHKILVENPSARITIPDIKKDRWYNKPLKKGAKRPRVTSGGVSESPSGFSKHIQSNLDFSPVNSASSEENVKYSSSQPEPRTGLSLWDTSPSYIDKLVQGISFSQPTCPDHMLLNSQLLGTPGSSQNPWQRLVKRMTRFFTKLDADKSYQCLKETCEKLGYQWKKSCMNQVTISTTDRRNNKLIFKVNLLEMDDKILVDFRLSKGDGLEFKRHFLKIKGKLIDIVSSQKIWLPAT

[26] = target: NUAK family SNF1-like kinase 2 (Homo sapiens) (UniProt Q9H093); details: Compound concentration 1000.0 nM
[27] = target: Ribosomal protein S6 kinase alpha-6 (Homo sapiens) (UniProt Q9UK32); details: Compound concentration 1000.0 nM
[28] = target: Serine/threonine-protein kinase DCLK1 (Homo sapiens) (UniProt O15075); details: Compound concentration 1000.0 nM
[29] = target: Ribosomal protein S6 kinase alpha-4 (Homo sapiens) (UniProt O75676); details: Compound concentration 1000.0 nM
[30] = target: Phosphatidylinositol 5-phosphate 4-kinase type-2 beta (Homo sapiens) (UniProt P78356); details: Compound concentration 1000.0 nM
[31] = target: Serine/threonine-protein kinase RIO2 (Homo sapiens) (UniProt Q9BVS4); details: Compound concentration 1000.0 nM
[32] = target: Cyclin-dependent kinase 4 (Homo sapiens) (UniProt P11802); details: Compound concentration 1000.0 nM; remark: listed apart in the source
[33] = target: Non-receptor tyrosine-protein kinase TNK1 (Homo sapiens) (UniProt Q13470); details: Compound concentration 1000.0 nM
[34] = target: Phosphorylase b kinase gamma catalytic chain, skeletal muscle/heart isoform (Homo sapiens) (UniProt Q16816); details: Compound concentration 1000.0 nM
[35] = target: Ephrin type-B receptor 4 (Homo sapiens) (UniProt P54760); details: Compound concentration 1000.0 nM
[36] = target: Fibroblast growth factor receptor 3 (Homo sapiens) (UniProt P22607); details: Compound concentration 1000.0 nM
[37] = system: Tyrosine-protein kinase ABL1 (Homo sapiens), P00519 [Q252H]; details: Compound concentration 1000.0 nM
[38] = target: Serine/threonine-protein kinase NLK (Homo sapiens) (UniProt Q9UBE8); details: Compound concentration 1000.0 nM
[39] = target: Serine/threonine-protein kinase TAO2 (Homo sapiens) (UniProt Q9UL54); details: Compound concentration 1000.0 nM
[40] = target: Serine/threonine-protein kinase 25 (Homo sapiens) (UniProt O00506); details: Compound concentration 1000.0 nM
[41] = target: Serine/threonine-protein kinase ULK1 (Homo sapiens) (UniProt O75385); details: Compound concentration 1000.0 nM
[42] = system: Epidermal growth factor receptor (Homo sapiens), P00533 [UNDEFINED MUTATION]; details: Compound concentration 1000.0 nM
[43] = target: Sodium-dependent serotonin transporter (Homo sapiens) (UniProt P31645); details: Compound concentration 10.0 uM

Sequence of Muscarinic acetylcholine receptor M1 (Homo sapiens) (P11229 whole entry, canonical isoform): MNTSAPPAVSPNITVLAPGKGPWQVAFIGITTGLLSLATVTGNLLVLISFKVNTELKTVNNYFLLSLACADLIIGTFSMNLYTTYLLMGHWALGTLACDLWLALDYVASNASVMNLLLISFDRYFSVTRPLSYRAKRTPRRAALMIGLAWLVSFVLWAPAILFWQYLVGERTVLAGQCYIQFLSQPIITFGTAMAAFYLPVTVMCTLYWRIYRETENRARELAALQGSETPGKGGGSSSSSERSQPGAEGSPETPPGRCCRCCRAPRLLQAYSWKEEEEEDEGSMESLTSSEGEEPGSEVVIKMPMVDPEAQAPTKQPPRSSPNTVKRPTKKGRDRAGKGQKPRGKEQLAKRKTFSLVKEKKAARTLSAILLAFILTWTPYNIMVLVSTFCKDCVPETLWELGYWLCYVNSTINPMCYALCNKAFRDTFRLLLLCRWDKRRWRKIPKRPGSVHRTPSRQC

Cc1c(NC(=O)c2cc(C(N)=O)nc3cc(F)ccc23)c(C(F)(F)F)nn1Cc1ccc(C(C)(C)C)cc1 [BAY-588]
residual activity [1]: 98% | residual activity [2]: 49% | inhibition [3]: 37.2% | residual activity [4]: 100% | residual activity [5]: 94% | residual activity [6]: 100% | residual activity [7]: 100% | inhibition [8]: 7.12% | residual activity [9]: 100% | residual activity [10]: 100% | residual activity [11]: 100% | residual activity [12]: 89% | residual activity [13]: 100% | residual activity [14]: 100% | residual activity [15]: 100% | residual activity [16]: 86% | residual activity [17]: 84% | residual activity [18]: 98% | inhibition (Histamine H2 receptor): 32.4% | residual activity [19]: 100% | residual activity [20]: 100% | residual activity [21]: 100% | residual activity [22]: 100% | residual activity [23]: 100% | inhibition [24]: 8.69% | residual activity [25]: 100% | residual activity [26]: 100% | residual activity [27]: 100% | residual activity [28]: 91% | residual activity [29]: 100% | residual activity [30]: 91% | residual activity [31]: 76% | residual activity [32]: 100% | residual activity [33]: 100% | residual activity [34]: 100% | residual activity [35]: 100% | residual activity [36]: 92% | residual activity [37]: 84% | residual activity [38]: 100% | residual activity [39]: 100% | residual activity [40]: 100% | residual activity [41]: 98% | residual activity [42]: 75% | inhibition [43]: -3.13%

Cc1c(NC(=O)c2cc(C(N)=O)nc3cc(F)ccc23)c(C(F)(F)F)nn1Cc1ccc(C#N)cc1 [BAY-876]
residual activity [1]: 100% | residual activity [2]: 70% | inhibition [3]: 28.2% | residual activity [4]: 83% | residual activity [5]: 92% | residual activity [6]: 88% | residual activity [7]: 81% | inhibition [8]: 4.88% | residual activity [9]: 83% | residual activity [10]: 75% | residual activity [11]: 100% | residual activity [12]: 100% | residual activity [13]: 87% | residual activity [14]: 100% | residual activity [15]: 75% | residual activity [16]: 81% | residual activity [17]: 100% | residual activity [18]: 81% | inhibition (Histamine H2 receptor): 30.4% | residual activity [19]: 99% | residual activity [20]: 92% | residual activity [21]: -0% | residual activity [22]: 99% | residual activity [23]: 98% | inhibition [24]: -4.15% | residual activity [25]: 75% | residual activity [26]: 83% | residual activity [27]: 78% | residual activity [28]: 85% | residual activity [29]: 85% | residual activity [30]: 88% | residual activity [31]: 76% | residual activity [32]: 87% | residual activity [33]: 81% | residual activity [34]: 100% | residual activity [35]: 100% | residual activity [36]: 99% | residual activity [37]: 100% | residual activity [38]: 100% | residual activity [39]: 85% | residual activity [40]: 100% | residual activity [41]: 81% | residual activity [42]: 79% | inhibition [43]: 0.483%

— ChEMBL document CHEMBL4507267 (2021)
